# Structures can show the parent of a compound that is named as a salt.
# Test: Phase 1 dose escalation study in healthy post-menopausal women, treatment related AEs
# Assay type: in vivo
# Protocol: The subjects were 40-75 years old with BMI of 18.0-30 kg/m^2. Subjects having evidence of clinically relevant pathology, increased risk of stroke or of history venous thromboembolic events, or use of concomitant medication less than 14 days prior to admission to clinical research center (paracetamol allowed up to 3 days prior) were excluded. Dosing
# The subjects were treated with placebo or at least one dose p.o., q.d. after a light breakfast for 7 days at dose levels of 200 mg, 500 mg, 750 mg and 1000 mg, respectively.
smiles,measurement,setting,value
"CCNCCc1ccc(CN(CC)c2cc(OC)ccc2[C@@H]2CCc3cc(O)ccc3C2)cc1 [RAD1901, (6R)-6-(2-(N-(4-(2-(ethylamino)ethyl)benzyl)-N-ethylamino)-4-methoxyphenyl)-5,6,7,8-tetrahydronaphthalen-2-ol dihydrochloride]",Nausea Gr2,"750 mg, N = 8",1 (13) n(%)
same,Nausea Gr3,"750 mg, N = 8",0 n(%)
same,Odynophagia Gr1,"750 mg, N = 8",0 n(%)
same,Odynophagia Gr2,"750 mg, N = 8",0 n(%)
same,Odynophagia Gr3,"750 mg, N = 8",0 n(%)
same,Oesophageal pain Gr1,"750 mg, N = 8",1 (13) n(%)
same,Oesophageal pain Gr2,"750 mg, N = 8",0 n(%)
same,Oesophageal pain Gr3,"750 mg, N = 8",0 n(%)
same,Salivary hypersecretion Gr1,"750 mg, N = 8",2 (25) n(%)
same,Salivary hypersecretion Gr2,"750 mg, N = 8",0 n(%)
same,Salivary hypersecretion Gr3,"750 mg, N = 8",0 n(%)
same,Sensation of a foreign body Gr1,"750 mg, N = 8",0 n(%)
same,Sensation of a foreign body Gr2,"750 mg, N = 8",0 n(%)
same,Sensation of a foreign body Gr3,"750 mg, N = 8",0 n(%)
same,Vomiting Gr1,"750 mg, N = 8",0 n(%)
same,Vomiting Gr2,"750 mg, N = 8",2 (25) n(%)
same,Vomiting Gr3,"750 mg, N = 8",0 n(%)
same,Abdominal discomfort Gr1,"1000 mg, N = 7",0 n(%)
same,Abdominal discomfort Gr2,"1000 mg, N = 7",0 n(%)
same,Abdominal discomfort Gr3,"1000 mg, N = 7",0 n(%)
same,Abdominal distension Gr1,"1000 mg, N = 7",2 (29) n(%)
same,Abdominal distension Gr2,"1000 mg, N = 7",0 n(%)
same,Abdominal distension Gr3,"1000 mg, N = 7",0 n(%)
same,Abdominal pain Gr1,"1000 mg, N = 7",1 (14) n(%)
same,Abdominal pain Gr2,"1000 mg, N = 7",1 (14) n(%)
same,Abdominal pain Gr3,"1000 mg, N = 7",0 n(%)
same,Diarrhoea Gr1,"1000 mg, N = 7",3 (43) n(%)
same,Diarrhoea Gr2,"1000 mg, N = 7",1 (14) n(%)
same,Diarrhoea Gr3,"1000 mg, N = 7",0 n(%)
same,Dizziness Gr1,"1000 mg, N = 7",1 (14) n(%)
same,Dizziness Gr2,"1000 mg, N = 7",0 n(%)
same,Dizziness Gr3,"1000 mg, N = 7",0 n(%)
same,Dyspepsia Gr1,"1000 mg, N = 7",1 (14) n(%)
same,Dyspepsia Gr2,"1000 mg, N = 7",1 (14) n(%)
same,Dyspepsia Gr3,"1000 mg, N = 7",0 n(%)
same,Dysphagia Gr1,"1000 mg, N = 7",0 n(%)
same,Dysphagia Gr2,"1000 mg, N = 7",0 n(%)
same,Dysphagia Gr3,"1000 mg, N = 7",0 n(%)
same,Flatulance Gr1,"1000 mg, N = 7",0 n(%)
same,Flatulance Gr2,"1000 mg, N = 7",0 n(%)
same,Flatulance Gr3,"1000 mg, N = 7",0 n(%)
same,Headache Gr1,"1000 mg, N = 7",2 (29) n(%)
same,Headache Gr2,"1000 mg, N = 7",0 n(%)
same,Headache Gr3,"1000 mg, N = 7",0 n(%)
same,Hiccups Gr1,"1000 mg, N = 7",2 (29) n(%)
same,Hiccups Gr2,"1000 mg, N = 7",0 n(%)
same,Hiccups Gr3,"1000 mg, N = 7",0 n(%)
same,Hot flush Gr1,"1000 mg, N = 7",1 (14) n(%)
same,Hot flush Gr2,"1000 mg, N = 7",0 n(%)
same,Hot flush Gr3,"1000 mg, N = 7",0 n(%)
same,Myalgia Gr1,"1000 mg, N = 7",0 n(%)
same,Myalgia Gr2,"1000 mg, N = 7",0 n(%)
same,Myalgia Gr3,"1000 mg, N = 7",0 n(%)
same,Nausea Gr1,"1000 mg, N = 7",4 (57) n(%)
same,Nausea Gr2,"1000 mg, N = 7",2 (29) n(%)
same,Nausea Gr3,"1000 mg, N = 7",0 n(%)
same,Odynophagia Gr1,"1000 mg, N = 7",1 (14) n(%)
same,Odynophagia Gr2,"1000 mg, N = 7",1 (14) n(%)
same,Odynophagia Gr3,"1000 mg, N = 7",0 n(%)
same,Oesophageal pain Gr1,"1000 mg, N = 7",1 (14) n(%)
same,Oesophageal pain Gr2,"1000 mg, N = 7",1 (14) n(%)
same,Oesophageal pain Gr3,"1000 mg, N = 7",1 (14) n(%)
same,Salivary hypersecretion Gr1,"1000 mg, N = 7",2 (29) n(%)
same,Salivary hypersecretion Gr2,"1000 mg, N = 7",0 n(%)
same,Salivary hypersecretion Gr3,"1000 mg, N = 7",0 n(%)
same,Sensation of a foreign body Gr1,"1000 mg, N = 7",4 (57) n(%)
same,Sensation of a foreign body Gr2,"1000 mg, N = 7",0 n(%)
same,Sensation of a foreign body Gr3,"1000 mg, N = 7",0 n(%)
same,Vomiting Gr1,"1000 mg, N = 7",0 n(%)
same,Vomiting Gr2,"1000 mg, N = 7",3 (43) n(%)
same,Vomiting Gr3,"1000 mg, N = 7",0 n(%)
same,dose limiting toxicities (DLT),"200-1000 mg p.o., q.d., 7 days",No dose limiting toxicites (DLT) were observed
same,maximum tolerated dose (MTD),"200-1000 mg p.o., q.d., 7 days",not established
same,Abdominal discomfort Gr1,"Total Active, N = 44",4 n(%)
same,Abdominal discomfort Gr2,"Total Active, N = 44",1 (2) n(%)
same,Abdominal discomfort Gr3,"Total Active, N = 44",0 n(%)
same,Abdominal distension Gr1,"Total Active, N = 44",5 n(%)
same,Abdominal distension Gr2,"Total Active, N = 44",1 (2) n(%)
same,Abdominal distension Gr3,"Total Active, N = 44",0 n(%)
same,Abdominal pain Gr1,"Total Active, N = 44",7 n(%)
same,Abdominal pain Gr2,"Total Active, N = 44",3 (7) n(%)
same,Abdominal pain Gr3,"Total Active, N = 44",0 n(%)
same,Diarrhoea Gr1,"Total Active, N = 44",6 n(%)
same,Diarrhoea Gr2,"Total Active, N = 44",1 (2) n(%)
same,Diarrhoea Gr3,"Total Active, N = 44",0 n(%)
same,Dizziness Gr1,"Total Active, N = 44",5 n(%)
same,Dizziness Gr2,"Total Active, N = 44",0 n(%)
same,Dizziness Gr3,"Total Active, N = 44",0 n(%)
same,Dyspepsia Gr1,"Total Active, N = 44",13 n(%)
same,Dyspepsia Gr2,"Total Active, N = 44",3 (7) n(%)
same,Dyspepsia Gr3,"Total Active, N = 44",0 n(%)
same,Dysphagia Gr1,"Total Active, N = 44",4 n(%)
same,Dysphagia Gr2,"Total Active, N = 44",3 (7) n(%)
same,Dysphagia Gr3,"Total Active, N = 44",0 n(%)
same,Flatulance Gr1,"Total Active, N = 44",5 n(%)
same,Flatulance Gr2,"Total Active, N = 44",0 n(%)
same,Flatulance Gr3,"Total Active, N = 44",0 n(%)
same,Headache Gr1,"Total Active, N = 44",9 n(%)
same,Headache Gr2,"Total Active, N = 44",1 (2) n(%)
same,Headache Gr3,"Total Active, N = 44",0 n(%)
same,Hiccups Gr1,"Total Active, N = 44",9 n(%)
same,Hiccups Gr2,"Total Active, N = 44",0 n(%)
same,Hiccups Gr3,"Total Active, N = 44",0 n(%)
same,Hot flush Gr1,"Total Active, N = 44",11 n(%)
same,Hot flush Gr2,"Total Active, N = 44",0 n(%)
same,Hot flush Gr3,"Total Active, N = 44",0 n(%)
same,Myalgia Gr1,"Total Active, N = 44",3 n(%)
same,Myalgia Gr2,"Total Active, N = 44",2 (5) n(%)
same,Myalgia Gr3,"Total Active, N = 44",0 n(%)
same,Nausea Gr1,"Total Active, N = 44",14 n(%)
same,Nausea Gr2,"Total Active, N = 44",5 (11) n(%)
same,Nausea Gr3,"Total Active, N = 44",0 n(%)
same,Odynophagia Gr1,"Total Active, N = 44",4 n(%)
same,Odynophagia Gr2,"Total Active, N = 44",2 (5) n(%)
same,Odynophagia Gr3,"Total Active, N = 44",0 n(%)
same,Oesophageal pain Gr1,"Total Active, N = 44",3 n(%)
same,Oesophageal pain Gr2,"Total Active, N = 44",6 (14) n(%)
same,Oesophageal pain Gr3,"Total Active, N = 44",1 (2) n(%)
same,Salivary hypersecretion Gr1,"Total Active, N = 44",8 n(%)
same,Salivary hypersecretion Gr2,"Total Active, N = 44",0 n(%)
same,Salivary hypersecretion Gr3,"Total Active, N = 44",0 n(%)
same,Sensation of a foreign body Gr1,"Total Active, N = 44",7 n(%)
same,Sensation of a foreign body Gr2,"Total Active, N = 44",0 n(%)
same,Sensation of a foreign body Gr3,"Total Active, N = 44",0 n(%)
same,Vomiting Gr1,"Total Active, N = 44",3 n(%)
same,Vomiting Gr2,"Total Active, N = 44",10 (23) n(%)
same,Vomiting Gr3,"Total Active, N = 44",1 (2) n(%)
same,Abdominal discomfort All,"Total TEAE, N = 44",5 n(%)
same,Abdominal distension All,"Total TEAE, N = 44",6 n(%)
same,Abdominal pain All,"Total TEAE, N = 44",10 n(%)
same,Diarrhoea All,"Total TEAE, N = 44",7 n(%)
same,Dizziness All,"Total TEAE, N = 44",5 n(%)
same,Dyspepsia All,"Total TEAE, N = 44",16 n(%)
same,Dysphagia All,"Total TEAE, N = 44",7 n(%)
same,Flatulance All,"Total TEAE, N = 44",5 n(%)
same,Headache All,"Total TEAE, N = 44",10 n(%)
same,Hiccups All,"Total TEAE, N = 44",9 n(%)
same,Hot flush All,"Total TEAE, N = 44",11 n(%)
same,Myalgia All,"Total TEAE, N = 44",5 n(%)
same,Nausea All,"Total TEAE, N = 44",19 n(%)
same,Odynophagia All,"Total TEAE, N = 44",6 n(%)
same,Oesophageal pain All,"Total TEAE, N = 44",10 n(%)
same,Salivary hypersecretion All,"Total TEAE, N = 44",8 n(%)
same,Sensation of a foreign body All,"Total TEAE, N = 44",7 n(%)
same,Vomiting All,"Total TEAE, N = 44",14 n(%)
